Measured values from publication PMC11342626, “Inhibition of IRP2-dependent reprogramming of iron metabolism suppresses tumor growth in colorectal cancer” (Cell Communication and Signaling : CCS, 2024).

Target: T1, IRP2 (Homo sapiens, UniProt P48200)
T1 construct: gene IREB2; isolated IRP2 immobilised on CM5 chip
T1 sequence (P48200 1-963): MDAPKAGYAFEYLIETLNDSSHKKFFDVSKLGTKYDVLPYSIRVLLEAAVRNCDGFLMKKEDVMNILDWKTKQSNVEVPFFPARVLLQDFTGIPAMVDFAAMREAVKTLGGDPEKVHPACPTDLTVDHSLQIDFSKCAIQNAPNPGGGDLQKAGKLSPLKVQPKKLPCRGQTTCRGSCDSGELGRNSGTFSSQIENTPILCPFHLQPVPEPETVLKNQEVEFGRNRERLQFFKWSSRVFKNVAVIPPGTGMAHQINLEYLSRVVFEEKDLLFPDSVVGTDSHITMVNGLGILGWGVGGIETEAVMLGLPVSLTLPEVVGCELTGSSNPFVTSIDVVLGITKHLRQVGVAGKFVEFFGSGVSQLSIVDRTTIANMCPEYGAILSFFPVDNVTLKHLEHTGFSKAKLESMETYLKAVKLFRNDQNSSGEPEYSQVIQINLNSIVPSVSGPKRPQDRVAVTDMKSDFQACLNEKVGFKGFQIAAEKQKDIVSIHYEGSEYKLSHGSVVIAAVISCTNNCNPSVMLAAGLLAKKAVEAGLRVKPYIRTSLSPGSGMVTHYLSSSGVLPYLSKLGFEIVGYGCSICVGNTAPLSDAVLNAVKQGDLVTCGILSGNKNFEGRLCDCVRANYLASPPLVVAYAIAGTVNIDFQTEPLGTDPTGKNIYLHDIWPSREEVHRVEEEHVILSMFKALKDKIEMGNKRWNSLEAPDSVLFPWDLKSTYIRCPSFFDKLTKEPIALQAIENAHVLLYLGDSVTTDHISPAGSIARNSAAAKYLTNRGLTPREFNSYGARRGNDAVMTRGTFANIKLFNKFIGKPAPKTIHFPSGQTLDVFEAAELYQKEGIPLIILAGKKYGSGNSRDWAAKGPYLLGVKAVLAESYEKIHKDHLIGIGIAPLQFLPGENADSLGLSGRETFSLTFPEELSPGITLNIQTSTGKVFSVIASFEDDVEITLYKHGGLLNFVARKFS
Test: SPR (Biacore T200, CM5 chip, multi-cycle kinetics, […] fit)
Type: binding

Compound	Kd [µM]
COc1ccc(S(=O)(=O)Nc2cccc(C)c2)cc1-c1cnc2[nH]ncc2c1 [KS-20073]	45.9
COc1ccc(S(=O)(=O)Nc2cccc(F)c2)cc1-c1cnc2[nH]nc(NC(C)=O)c2c1 [KS-20226]	4.1
